The text below walks through data of patent US20060264347A1, “Antimicrobial composition” (priority 2005, published 2006).

Data set [1] has as its system E. coli. The experiment in a line: In vitro antimicrobial efficacy, viable plate count after 24 hr culture. Type of data set: cell-based. The conditions noted are these: 37° C. 24 hr, inoculum 10^6 CFU/ml. How it is done: (§1) The synergistic antimicrobial efficacy of the LAE and diiodomethyl-p-tolylsulfone ([…]) antimicrobial composition is illustrated by the results shown in Tables 1 and 2, and was determined by the following protocol. […] Sequential dilutions of the above two stock solutions were then prepared in sterile saline. […] Controls contained similar amounts of saline in the test culture with no LAE or […]. The test cultures were incubated at 37° C. for 24 hr, the total viable bacteria were numerated by plate count on Trypticase® soy agar (BBL) containing inactivating agent. The plates were incubated at 37° C. for 48 hr and reported as colony forming unit/ml (CFU/ml).

In data set [2] the test system is S. aureus. The data set is described as above. Type of data set: cell-based. The following applies: 37° C. 24 hr, inoculum 10^6 CFU/ml. As for the experimental part:
as §1

Data set [3] deals with E. faecium. Described as above. In kind it is cell-based. The conditions noted are these: 37° C. 24 hr, inoculum 10^6 CFU/ml. As for the experimental part: as §1
Data set [4] deals with C. albican. The description is as above. Type of data set: cell-based. The following applies: 37° C. 24 hr, inoculum 10^6 CFU/ml. How it is done: as §1
Data set [5] has as its system P. aeruginosa. The data set is described as above. Type of data set: cell-based. The following applies: 37° C. 24 hr, inoculum 10^6 CFU/ml. As for the experimental part:
as §1

For data set [6], the system named is E. coli. The experiment in a line: Zone of inhibition assay of coated sutures. The conditions noted are these: coated 2-0 polyglactin 910 suture, 37° C. 48 hr. Type of data set: cell-based. How it is done:
(§2) A series of USP standard size 2-0 uncoated polyglactin 910 sutures were coated with coating compositions containing LAE. LAE stock solution was made in ethanol at the concentration of 10%. The coating solutions were made by dissolving a L(−)lactide/glycolide copolymer containing 65 mole % lactide and 35 mole % glycolide (4.5%) and calcium stearate (4.5%) in ethyl acetate. Then, the LAE stock solution was added to the coating solution at sequential concentrations and mixed thoroughly. The sutures were hand coated by dipping into the coating solution containing antimicrobial composition and then air dried at room temperature for 8 hr. The antimicrobial efficacy was evaluated by zone of inhibition assay, in which the sutures were cut into a 5 cm section and inoculated with about 10^5 cfu/suture in a Petri dish, a portion of 20 ml of TSA tempered at 47° C. was added into the Petri dish. The inoculum was mix thoroughly with the medium and the suture was placed in the middle of the plate. The inoculated plates were incubated at 37° C. for 48 hr and then the zone of inhibition was measured with a digital caliper.
as §2, with “DIMPTS. DIMPTS” for “LAE. LAE”, “DIMPTS” for “LAE”
(§3) A series of USP standard size 2-0 uncoated polyglactin 910 sutures were coated with coating compositions containing the combinations of LAE and DIMPTS. DIMPTS and LAE stock solutions were made in ethanol at concentration of 10%. The coating solutions were made by dissolving a L(−)lactide/glycolide copolymer containing 65 mole % lactide and 35 mole % glycolide (4.5%) and calcium stearate (4.5%) in ethyl acetate. Then, the DIMPTS and LAE stock solutions were added to the coating solution at sequential concentrations and mixed thoroughly. The sutures were hand coated by dipping into the coating solution containing antimicrobial composition and then air dried at room temperature for 8 hr. The antimicrobial efficacy and synergistic effect were evaluated by zone of inhibition assay, in which the sutures were cut into a 5 cm section and inoculated with about 10^5 cfu/suture in a Petri dish, a portion of 20 ml of TSA tempered at 47° C. was added into the Petri dish. The inoculum was mix thoroughly with the medium and the suture was placed in the middle of the plate. The inoculated plates were incubated at 37° C. for 48 hr and then the zone of inhibition was measured with a digital caliper.

The subject of data set [7] is S. aureus. Kind of data set: Zone of inhibition assay of coated sutures. The conditions noted are these: coated 2-0 polyglactin 910 suture, 37° C. 48 hr. Type of data set: cell-based. How it is done: as §2
(§4) A series of USP standard size 2-0 uncoated polyglactin 910 sutures were coated with coating compositions containing DIMPTS. DIMPTS stock solution was made in ethanol at the concentration of 10%. The coating solutions were made by dissolving a L(−)lactide/glycolide copolymer containing 65 mole % lactide and 35 mole % glycolide (4.5%) and calcium stearate (4.5%) in ethyl acetate. Then, the DIMPTS stock solution was added to the coating solution at sequential concentrations and mixed thoroughly. The sutures were hand coated by dipping into the coating solution containing antimicrobial composition and then air dried at room temperature for 8 hr. The antimicrobial efficacy was evaluated by zone of inhibition assay, in which the sutures were cut into a 5 cm section and inoculated with about 10^5 cfu/suture in a Petri dish, a portion of 20 ml of TSA tempered at 47° C. was added into the Petri dish. The inoculum was mix thoroughly with the medium and the suture was placed in the middle of the plate. The inoculated plates were incubated at 37° C. for 48 hr and then the zone of inhibition was measured with a digital caliper.
as §3

Data set [8] relates to C. albicans. The experiment in a line: Zone of inhibition assay of coated sutures. Type of data set: cell-based. The following applies: coated 2-0 polyglactin 910 suture, 37° C. 48 hr. As for the experimental part: as §2, §4
For data set [9] the following is noted: rats; cited from earlier work.
For data set [10] the following is noted: animals and humans; cited from earlier work.

As to `Cc1ccc(S(=O)(=O)C(I)I)cc1` [DIMPTS, diiodomethyl-p-tolylsulfone], the CFU/ml in data set [1] (10 ppm) was 1.4 × 10^9 CFU/ml; in data set [1] (200 ppm), 1.1 × 10^5 CFU/ml; in [2] (0.5 ppm), 1.2 × 10^9 CFU/ml; in [2] (5 ppm) it was 2.4 × 10^6 CFU/ml; in [3] (0.5 ppm), 6 × 10^8 CFU/ml; in data set [3] (5 ppm) it was 3 × 10^8 CFU/ml. Moreover, the CFU/ml was 1 × 10^8 CFU/ml in [4] (0.5 ppm), 1.0 × 10^9 CFU/ml in data set [5] (10 ppm) and 4 × 10^8 CFU/ml in data set [5] (200 ppm). For the same compound, the “Zone of inhibition (mm)” value in data set [6] (0.1% in coating solution) is given as 0 mm; in data set [6] (0.5% in coating solution), 0 mm; in [6] (1% in coating solution), 1.0 mm; in data set [7] (0.1% in coating solution), 0 mm; in data set [7] (0.5% in coating solution), 3.0 mm; in [7] (1% in coating solution), 4.3 mm. Also, the “Zone of inhibition (mm)” value in [8] (0.1% in coating solution) turned out to be 3.3 mm; in data set [8] (0.5% in coating solution) it was 3.6 mm; in data set [8] (1% in coating solution), 8.4 mm.

Consider `CCCCCCCCCCCC(=O)N[C@@H](CCCN=C(N)N)C(=O)OCC.Cl` [LAE, ethyl ester of the lauramide of the arginine monohydrochloride], for which the CFU/ml in [1] (10 ppm) is listed as 1.1 × 10^9 CFU/ml; in data set [2] (10 ppm) it was 1.1 × 10^9 CFU/ml; in [3] (10 ppm) it was 5 × 10^7 CFU/ml; in data set [4] (10 ppm), 6 × 10^7 CFU/ml; in [5] (10 ppm), 1.2 × 10^9 CFU/ml. The “Zone of inhibition (mm)” value in data set [6] (0.5% in coating solution) is on record as 0 mm; in data set [6] (1% in coating solution) it was 1.0 mm; in [6] (2% in coating solution), 2.0 mm; in [7] (0.5% in coating solution) it was 0 mm; in data set [7] (1% in coating solution), 1.5 mm; in [7] (2% in coating solution), 3.2 mm. In addition, the “Zone of inhibition (mm)” value in [8] (0.5% in coating solution) stood at 0 mm; in [8] (1% in coating solution), 2.3 mm; in data set [8] (2% in coating solution), 3.5 mm. The absorption and metabolism result in data set [9] is “fast absorption and metabolism into naturally-occurring amino acids and the lauric acid”. Besides, the toxicity result in [10] was “completely harmless”.
